# Test results published in patent publication US20210352863A1, “METHOD FOR CONTROLLING WEED BEETS AND OTHER WEEDS” (KWS SAAT SE & Co. KGaA, priority 2018, published 2021).
# Key:
# [1] = system: sugar beet elite line T807 (mutagenized, M2 plants); experiment: glyphosate treatment of surviving M2 plants of mutagenized sugar beet (screening and selection for resistance); assay type: in vivo, Beta vulgaris (sugar beet); conditions: 600 g/ha glyphosate acid equivalent
# Source text: 6 kg seeds of sugar beet elite line T807 (3BT1760, M0 population) were mutagenized with 0.5% EMS and 0.3% and 0.5%, respectively ENU, and subsequently drilled for steck production. Stecks were replanted for seed production occupying an area of 5.8 ha. M1 population sizes were 75,000 seed producing plants for EMS and 19,000 plants for ENU mutagenized seeds. The following M2 seed amounts (values given for purified seed) has been obtained: 240 kg for 0.5% EMS (idents A and B), 548 kg for 0.3% ENU (idents C and D), and 256 kg 0.5% ENU (idents E and F).
# 176 kg of idents A and B and 75 kg of idents C, D, E and F were sown on an approximately 15 ha spanning field site. Approximately 1 month after sowing, the entire field was sprayed with 0.88 I/ha ROUNDUP® MAX (680 g/kg glyphosate acid equivalent). Approximately 6 weeks later, plants surviving the glyphosate treatment were collected in the field, transplanted to pots and further cultivated in the greenhouses. Surviving plants were treated with 600 g/ha glyphosate acid equivalent about 2 months later.
# In order to identify the causative mutation behind the observed herbicide resistance sequencing analyses have been performed. Inter alia, the exon 2 of the epsp synthase gene in sugar beet was PCR amplified (primers BvEPSPS_Ex_2_for, 5′-[…]-3′ (SEQ ID NO: 13), and BvEPSPS_Ex_2_rev, 5′-[…]-3′ (SEQ ID NO: 14)) and Sanger sequenced (primers BvEPSPS_Ex2_Seqf, 5′-[…]-3′ (SEQ ID NO: 15), and BvEPSPS_Ex2_Seqr, 5′-[…]-3′ (SEQ ID NO: 16)) in all 172 surviving plants. The sugar beet plant with identifier 6MS1008-109 carried a C to T mutation that causes the P179S amino acid change in BvEPSPS. This artificial SNP has been independently confirmed by KASP marker assay using an in silico developed KASP-marker s1txepss02 (SEQ ID NOs: 17-19): […]
# [2] = acid form, at 25° C.; cited from earlier work
smiles,measurement,setting,value
"O=C(O)CNCP(=O)(O)O [glyphosate, N-phosphonomethylglycine]",resistance conferred by heterozygous P179S mutation in BvEPSPS,"[1]; approx. 50% of standard field treatment level, strong indication from screening and selection",complete resistance
same,plants that survived the treatment,[1]; potted greenhouse plants that had survived the field spray with ROUNDUP MAX,172 plants
same,herbicide damage on surviving plants,[1]; the 172 surviving plants in the greenhouse,without any signs of herbicide damage
same,solubility in water,[2],1.16 % by weight
